Laboratory results: patent US11532406B2, “High specific activity preparation of F-18 tetrafluoroborate” (Mayo Foundation for Medical Education and Research, priority 2016, dated 2022)
pIC50: −log10 of the molar value.

What was measured:
NIS = settings: reference (21); read-out: IC50 for inhibition of iodine uptake by NIS in thyroid; cited from earlier work
[1] = Stability of ^18F-TFB (radio-TLC and anion chromatography HPLC); type: physicochemical; settings: NaBF4 stock solution stored for 7 month at room temperature
Protocol: The product ^18F-TFB was analyzed for radiochemical purity by both radio-TLC (MeOH, Rf=0.8-0.85) and anion chromatography HPLC with radioactivity detector (Dionex IC-2100, AS19 analytical column: 4.7×150 mm; eluent: 35 mM KOH; sample volume: 25.L; flow rate: 1 mL/min; retention times: 7.6 min for ^18F-TFB, […]). Chemical purity and specific activity were analyzed by anion chromatography HPLC (retention times: 3.5 min for fluoride, 4.3 min for chloride, and 7.6 min for BF4—). Residual organic solvents were analyzed by GC (helium carrier gas flow at 10 cc/min through a MXTWAX column (Restek, Bellefonte, Pa., 0.53 mm ID, 30 m length)).
After the synthesis, a sample was diluted with water for the analysis. With the eluent of methanol on silica gel plate, purities of >98% were obtained on the radio-TLC scanner.
^18F-TFB was prepared and formulated in sterile 0.9% NaCl under cGMP conditions as previously described (12). Decay-corrected radiochemical yields of 32±2% and radiochemical purities (RCPs) >98% were obtained. Specific radioactivity of 2.2±0.9 GBq/μmol was achieved from starting ^18F-fluoride radioactivity of 20-31 GBq. In vitro RCP remained >96% up to 8 h at room temperature.

Row | TFB decayed (HPLC) [1] [%] | SMILES | pIC50 (NIS)
1 |  | F[B-](F)(F)F [TFB, tetrafluoroborate] | 6.00 to 7.00
2 | 50 | F[B-](F)(F)F.[Na+] [NaBF4, reference compound] | 
